Laboratory results: patent US11459323B2, “Monocyclic β-lactam compound for treating bacterial infection” (MEDSHINE DISCOVERY INC., priority 2018, dated 2022)
Converted amounts (≈) assume the structure as drawn. Like-named read-outs stand apart in the source and are kept apart here. Marks after values point to notes of the source that are not given here.

Tests used:
[1] = system: K. pneumoniae ATCC BAA-205 (TEM-1/SHV-1/SHV-12); assay: MIC by micro-liquid dilution method (CLSI); type: cell-based, Klebsiella pneumonia; conditions: Klebsiella pneumoniae, ATCCBAA205
[2] = system: K. pneumoniae ATCC BAA-1705 (KPC-2); assay: MIC by micro-liquid dilution method (CLSI); type: cell-based, Klebsiella pneumonia; conditions: Klebsiella pneumoniae, ATCCBAA1705
[3] = system: K. pneumoniae ATCC BAA-2470 (NDM-1); assay: MIC by micro-liquid dilution method (CLSI); type: cell-based, Klebsiella pneumonia; conditions: Klebsiella pneumoniae, ATCCBAA2470
[4] = system: E. coli ATCC BAA-2523 (OXA-48); assay: MIC by micro-liquid dilution method (CLSI); type: cell-based; conditions: Escherichia coli, ATCCBAA2523
Excerpt: (§1) Three strains of Klebsiella pneumonia, K. pneumoniae ATCC BAA-205 (TEM-1/SHV-1/SHV-12), K. pneumoniae ATCC BAA-1705 (KPC-2), K. pneumoniae ATCC BAA-2470 (NDM-1); three strains of Pseudomonas aeruginosa, P. aeruginosa NCTC13437 (VIM-10; VEB-1), P. aeruginosa PA 14 and P. aeruginosa ATCC 35151; four strains of Escherichia coli, E. coli NCTC 13476 (IMP-1 type), E. coli ATCC BAA-2523 (OXA-48), E. coli MG1655Δtol C, E. coli ATCC 25922; one strain of Acinetobacter baumannii, A. baumannii ATCC 17978 and one strain of Staphylococcus aureus, S. aureus NRS384 were used to determine the minimum inhibitory concentration (MIC) of the compounds by micro-liquid dilution method according to the Institute of Clinical and Laboratory Standard (CLSI) requirements.

[5] = system: P. aeruginosa PA 14; assay: MIC by micro-liquid dilution method (CLSI); type: cell-based; conditions: Pseudomonas aeruginosa, PA14
Excerpt: as §1

[6] = system: A. baumannii ATCC 17978; assay: MIC by micro-liquid dilution method (CLSI); type: cell-based; conditions: Acinetobacter baumannii
[7] = system: Acinetobacter baumannii ATCC-BAA-1605; assay: MIC on Acinetobacter baumannii strains; type: cell-based; conditions: ATCCBAA1605, ATCC-BAA-1605, read-out: MIC
Excerpt: (§2) Twelve strains of Acinetobacter baumannii, A. baumannii ATCC 17978 (ATCC-BAA-1605, ATCC-BAA-1789, ATCC-BAA-1790, ATCC-BAA-1791, ATCC-BAA-1792, ATCC-BAA-1793, ATCC-BAA-1794, ATCC-BAA-1795, ATCC-BAA-1799, ATCC-BAA-1800, ATCC 19606, ATCC 17978) were used to determine the minimum inhibitory concentration (MIC) of the compounds by micro-liquid dilution method according to the Institute of Clinical and Laboratory Standard (CLSI) requirements.

[8] = system: Acinetobacter baumannii ATCC-BAA-1791; assay: MIC on Acinetobacter baumannii strains; type: cell-based; conditions: ATCCBAA1791
Excerpt: as §2

[9] = system: Acinetobacter baumannii ATCC-BAA-1793; assay: MIC on Acinetobacter baumannii strains; type: cell-based; conditions: ATCCBAA1793, ATCC-BAA-1793, read-out: MIC
Excerpt: as §2

[10] = Pharmacokinetic experiment of the compounds in mice; type: in vivo; conditions: mouse, plasma, 2 mg/kg, Male CD-1 mice, fasting, 2 mpk; for Vd / clearance / AUC(0-t) / half-life / C0: intravenous injection; for Vd: read-out: Apparent distribution volume Vdss; for clearance: read-out: Clearance rate Cl; for AUC(0-t): read-out: Exposure AUC0-last; for half-life: read-out: Half-life period T1/2 (converted); for C0: read-out: Initial concentration C0; for bioavailability / Cmax: second section of Table 7 (intravenous injection); for Cmax: read-out: Maximum concentration Cmax
Protocol: In this experiment, six CD-1 mice (males) were divided into 2 groups (2 groups) according to their similar body weight. Group 1 and Group 2 were given respectively a single intravenous and intraperitoneal injection of the compounds of embodiment 13, embodiment 17, embodiment 32 and embodiment 34, each compound was at 2 mg/kg. The vehicles for intravenous and intraperitoneal injections were 5% dimethyl sulfoxide/95% water (10% polyoxyethylene castor oil), K2-EDTA (anticoagulant).
About 0.02 mL of blood samples from the saphenous vein were collected from all experimental animals, and the actual blood collection time was recorded. In this experiment, the deviation between the actual blood collection time and the theoretical blood collection time was in accordance with the regulations (the deviation of time points within 1 hour after administration were within 1 minute, and other deviations were within 5% of the theoretical time). After the blood samples were collected, they were immediately transferred to labeled centrifuge tubes containing K2 EDTA (0.5 M), followed by centrifugation (3,000 g, 4° C., 15 minutes) and the plasma was collected. The plasma was transferred to pre-cooled centrifuge tubes, quickly frozen in dry ice, and stored in an ultra-low temperature refrigerator at −60° C. or lower until LC-MS/MS analysis.

[11] = system: Pseudomonas aeruginosa PA14; assay: Lungs of immunosuppressed mice infected with Pseudomonas aeruginosa (1), lung bacterial load; type: in vivo; conditions: 24 hours after infection, day, ip at 2 h, 4 h, 6 h, 8 h
Protocol: Pseudomonas aeruginosa PA14. 64 mice were intraperitoneally injected with 150 mg/kg cyclophosphamide on the first day and the fourth day to give immunosuppressed mice. […] [table] The mice were injected with 50 μL of bacterial solution (2×10^3 CFU) through the airway. 2 hours after the infection, 4 mice in the model group was sacrificed by removing cervical vertebra. Two hours after infection, the drugs were administered by groups, and the mice were administered intraperitoneally once at 2 hours, 4 hours, 6 hours, and 8 hours, a total of 4 times. Mice of each group were sacrificed by removing cervical vertebra 24 hours after infection, lung and kidney tissues were taken aseptically and put into sterilized tissue homogenate tubes, weighed, and an appropriate amount of normal saline (NS) was added, the mixture was homogenized by a homogenizer for 1 min, the lung tissues of the model group were diluted 10^4, 10^5, 10^6 times, the lung tissues of each administration group were diluted 10, 100 times, the kidney tissues of the model group were diluted 10^2, […], 10^4 times, and the lung tissues of each administration group were diluted 10 times, the obtained mixtures were coated on TSA plates using spiral coater, then incubated at 37° C. overnight, and the CFU was counted with a colony counter. Graphpad Prism mapping software was used to make scatter plots of lung tissue CFU. SPSS19.0 software was used to count CFU and average body weight, and analysis of variance was used to analyze differences between groups.

[12] = system: E. coli MG1655Δtol C; assay: MIC by micro-liquid dilution method (CLSI); type: cell-based; conditions: Escherichia coli
Excerpt: as §1

[13] = system: E. coli NCTC 13476 (IMP-1 type); assay: MIC by micro-liquid dilution method (CLSI); type: cell-based; conditions: Escherichia coli, NCTC13476
Excerpt: as §1

[14] = system: P. aeruginosa ATCC 35151; assay: MIC by micro-liquid dilution method (CLSI); type: cell-based; conditions: Pseudomonas aeruginosa, ATCC35151
[15] = system: E. coli ATCC 25922; assay: MIC by micro-liquid dilution method (CLSI); type: cell-based; conditions: Escherichia coli, ATCC25922

SMILES	Vd [10] [L/kg]	clearance [10] [mL/min/kg]	AUC(0-t) [10] [µM·h]	half-life [10] [min]	C0 [10] [µM]	bioavailability [10] [%]	Cmax [10] [µM]	LOG10-of bacterial load ([11]; total dosage 60 mg/kg)	LOG10-of bacterial load ([11]; total dosage 120 mg/kg)	LOG10-of bacterial load ([11]; total dosage 200 mg/kg)	further results
CC1(C)[C@H](NC(=O)/C(=N\OCCOc2ccc3c(c2)CN(C(=N)N(CCCN)CCCN)C3)c2csc(N)n2)C(=O)N1OS(=O)(=O)O [Compound 17]	0.237	4.6	11	35.8	17	131	10.6	–	–	–	MIC ([1]; K. pneumoniae ATCCBAA-205, read-out: MIC): 2 µg/mL (≈ 2.87 µM); MIC ([2]; K. pneumoniae ATCCBAA-1705, read-out: MIC): 0.25 µg/mL (≈ 0.359 µM); MIC ([3]; K. pneumoniae ATCCBAA-2470, read-out: MIC): 0.25 µg/mL (≈ 0.359 µM); MIC ([4]; E. coli ATCCBAA-2523, read-out: MIC): ≤ 0.125 µg/mL; MIC ([5]; P. aeruginosa PA 14, read-out: MIC): 0.5 µg/mL (≈ 0.718 µM); MIC ([6]; A. baumannii ATCC17978, read-out: MIC): ≤ 0.125 µg/mL; MIC [7]: 4 µg/mL (≈ 5.74 µM); MIC [8]: 0.25 µg/mL (≈ 0.359 µM); MIC [9]: 4 µg/mL (≈ 5.74 µM)
CC1(C)[C@H](NC(=O)/C(=N\O[C@@H](COc2ccc3c(c2)CN(C(=N)N(CCCN)CCCN)C3)C(=O)O)c2csc(N)n2)C(=O)N1OS(=O)(=O)O [Compound 32]	0.0636	1.57	5.77	30.8	11.3	140	8	0**	0**	0**	–
CC1(C)[C@H](NC(=O)/C(=N\O[C@@H](COc2ccc3c(c2)CN(C(=N)NCCCN)C3)C(=O)O)c2csc(N)n2)C(=O)N1OS(=O)(=O)O [Compound 34]	0.274	10.4	4.95	22.6	14.4	93.3	5.55	0**	0**	1.10 ± 1.75	–
CC1(C)[C@H](C(=O)O)N2C(=O)C[C@H]2S1(=O)=O [Sulbactam, reference compound]	–	–	–	–	–	–	–	–	–	–	MIC [1]: 64 µg/mL (≈ 274 µM); MIC [2]: > 128 µg/mL; MIC [3]: > 128 µg/mL; MIC [4]: 64 µg/mL (≈ 274 µM); MIC [12]: 32 µg/mL (≈ 137 µM); MIC [13]: > 128 µg/mL; MIC [5]: 8 µg/mL (≈ 34.3 µM); MIC [14]: 64 µg/mL (≈ 274 µM); MIC ([6]; ATCC17978): 2 µg/mL (≈ 8.57 µM); MIC [15]: 64 µg/mL (≈ 274 µM)
